Columns and labels:
[1] = test system: perception of the sweet taste of an aqueous solution of sweetener; assay: Ranking sip and spit test of sweetness perception (R index); format: in vivo, humans; conditions: vs negative control
Description: The effect of the test compounds on the perception of the sweet taste of an aqueous solution of sweetener in humans was evaluated using a ranking “sip and spit” method.
(§1) The aqueous sweetener solutions were prepared by adding, fructose, sucrose or glucose (by weight), to water to achieve the desired concentration.
(§2) Compounds were first prepared as a 500-fold concentrated stock solution in 100% ethanol. These concentrated stocks were then added to the aqueous sweetener solutions to result in a final ethanol concentration of 0.2%. The control (positive and negative) samples were also normalized to 0.2% ethanol.
In the ranking test used for compound evaluation, taste panelists (n=15), rank samples in increasing order of sweetness. One set, comprising of 6 samples, was presented to each panelists at a given time and are asked to rank them in order of increasing sweetness.
Panelists were instructed not to eat or drink (except water) for at least 1 h before the test. During the test, panelists were instructed to sip each sample, swirl it around their mouth and then expectorate. After tasting each set, panelists were instructed to rank the 6 samples within the set from least sweet to most sweet. Where rank 1—is lowest in sweetness and rank 6—is highest in sweetness. Panelists cleansed their palates by rinsing with water, eating a cracker and waiting for an interval of 10 minutes. All samples were tasted at ambient temperatures. Each sample was tasted twice.
R index analysis was utilized to determine the degree of difference between a test and control sample. It indicates the level of discrimination between two samples. […] A positive control sample was used to assess the ability of the panelists to accurately discriminate sweetness perception differences from the negative control.

[2] = test system: perception of the sweet taste of an aqueous solution of sweetener; assay: Two-alternative forced choice sip and spit method (2AFC); format: in vivo, humans
Description: The effect of the test compounds on the perception of the sweet taste of an aqueous solution of sweetener in humans was evaluated using a two-alternative forced choice “sip and spit” method (2AFC).
as §1
as §2, with “0.2% ethanol. This level of ethanol was not seen to contribute any perceived sweetness.” for “0.2% ethanol.”
The 2AFC test used for compound evaluation was a blind and randomized test where taste panelists (n=15) evaluate a pair of sweetener solutions at a time—one sample contains aqueous sweetener solution plus compound (i.e. test) while the other contains aqueous sweetener solution at higher concentration without compound (i.e. positive control). Each test sample was compared against a positive control. For example, if the test sample contained 1× sweetener concentration with compound (e.g. 5% sucrose with compound), the positive control sample contained a 1.1× sweetener concentration (e.g. 5.5% sucrose without compound).
Panelists were instructed not to eat or drink (except water) for at least 1 h before the test. During the test, panelists were instructed to sip each sample, swirl it around their mouth and then expectorate. After tasting each sample in the pair, panelists were instructed to record the sample that is “sweeter” in taste. Panelists cleansed their palates by rinsing with water, eating a cracker and waiting for an interval of about 5 minutes. Each pair was tasted twice. All samples were tasted at ambient temperatures. Data were analyzed using binomial probabilities.
Approximate levels of sweetness enhancement in column 5 of Table 2 were calculated as follows:
Approximate levels of sweetness enhancement=Sweetener concentration of positive control surpassed by the test sample, divided by sweetener concentration for compound-containing sample (e.g. 1.15×=5.75% sucrose/5% sucrose).

[3] = test sample 4% fructose, compound 25 ppm with positive 2AFC

| SMILES | R Index Score ([1]; 5% sucrose test sample, compound 2.5 ppm) | Fold increase in perceived sweetness [2, 3] | Fold increase in perceived sweetness ([2]; test sample 5% sucrose, compound 15 ppm with positive 2AFC, positive control surpassed / test sweetener concentration) | Fold increase in perceived sweetness ([2]; test sample 6.5% glucose, compound 25 ppm with positive 2AFC) | R Index Score ([1]; 4% fructose test sample, compound 10 ppm) | R Index Score ([1]; 5% sucrose test sample, compound 10 ppm, significant at R index ≧60) | Fold increase in perceived sweetness ([2]; test sample 5% sucrose, compound 15, 25 ppm with positive 2AFC) | Fold increase in perceived sweetness ([2]; test sample 6.5% glucose, compound 10, 20, 25 ppm with positive 2AFC) |
| --- | --- | --- | --- | --- | --- | --- | --- | --- |
| COc1ccc(C2CC(=O)c3c(O)cccc3O2)cc1O (single isomer, unassigned) [Compound 3, 5-hydroxy-2-(3-hydroxy-4-methoxyphenyl)chroman-4-one] | 78 | >1.25X | >1.20X | >1.20X |  |  |  |  |
| COc1ccc(C2CC(=O)c3c(O)cccc3O2)cc1O (single isomer, unassigned) [Compound 2, 5-hydroxy-2-(3-hydroxy-4-methoxyphenyl)chroman-4-one] |  | >1.20X |  |  | 81 | 90 | >1.20X | >1.15X |
